ChEMBL document CHEMBL1155354, “Carbonic anhydrase inhibitors. Inhibition of the Rv1284 and Rv3273 beta-carbonic anhydrases from Mycobacterium tuberculosis with diazenylbenzenesulfonamides” (Bioorg Med Chem Lett, 2009)

Legend:
[1] = target: T1, Beta-carbonic anhydrase 1 (Mycobacterium tuberculosis, UniProt P9WPJ7)
T1 sequence (P9WPJ7 whole entry): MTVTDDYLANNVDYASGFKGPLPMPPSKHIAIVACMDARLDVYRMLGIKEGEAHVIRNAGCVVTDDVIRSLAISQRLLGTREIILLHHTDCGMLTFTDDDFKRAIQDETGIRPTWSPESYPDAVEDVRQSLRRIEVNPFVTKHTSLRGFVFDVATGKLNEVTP

[2] = target: T2, PROBABLE TRANSMEMBRANE CARBONIC ANHYDRASE (CARBONATE DEHYDRATASE) (CARBONIC DEHYDRATASE) (Mycobacterium tuberculosis, UniProt P96878)
T2 sequence (P96878 whole entry): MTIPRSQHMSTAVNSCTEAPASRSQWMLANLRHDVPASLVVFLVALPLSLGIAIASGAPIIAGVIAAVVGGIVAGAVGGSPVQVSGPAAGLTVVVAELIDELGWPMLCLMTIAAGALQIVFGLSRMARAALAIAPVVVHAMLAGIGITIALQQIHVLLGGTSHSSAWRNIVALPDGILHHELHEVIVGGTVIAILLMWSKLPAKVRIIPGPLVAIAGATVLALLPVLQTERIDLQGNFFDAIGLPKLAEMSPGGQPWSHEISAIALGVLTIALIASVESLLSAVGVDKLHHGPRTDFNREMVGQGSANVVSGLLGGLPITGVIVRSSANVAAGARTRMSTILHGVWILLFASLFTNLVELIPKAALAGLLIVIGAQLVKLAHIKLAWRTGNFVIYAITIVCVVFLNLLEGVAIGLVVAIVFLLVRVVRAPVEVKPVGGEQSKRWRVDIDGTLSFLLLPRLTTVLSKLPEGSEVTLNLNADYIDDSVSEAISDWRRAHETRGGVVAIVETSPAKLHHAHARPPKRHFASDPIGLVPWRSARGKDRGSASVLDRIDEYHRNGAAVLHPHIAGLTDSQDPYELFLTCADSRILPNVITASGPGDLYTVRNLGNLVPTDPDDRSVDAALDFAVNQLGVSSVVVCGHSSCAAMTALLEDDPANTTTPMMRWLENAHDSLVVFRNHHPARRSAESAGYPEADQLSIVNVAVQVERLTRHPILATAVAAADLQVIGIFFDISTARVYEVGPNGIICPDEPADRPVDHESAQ
Description: Inhibition of Mycobacterium tuberculosis recombinant carbonic anhydrase Rv3273 by stopped flow CO2 hydration assay

Carbonic anhydrase 2 = Carbonic anhydrase 2 (Homo sapiens, UniProt P00918)
Description: Inhibition of human cloned full length carbonic anhydrase 2 by stopped flow CO2 hydration assay

Compound	Ki [1] [µM]	Ki [2] [µM]	Ki (Carbonic anhydrase 2) [nM]
Nc1ccc(/N=N/c2ccc(S(N)(=O)=O)cc2)cc1	7.2	8.78	
Nc1ccc(S(=O)(=O)NCc2ccc(S(N)(=O)=O)cc2)cc1		2.21	
NS(=O)(=O)c1ccc(/N=N/c2ccc(NCS(=O)(=O)O)cc2)cc1	6.78	8.9	
CN(C)c1ccc(/N=N/c2ccc(S(N)(=O)=O)cc2)cc1	6.86	30.7	638
NS(=O)(=O)c1ccc(/N=N/c2ccc(O)cc2)cc1	9.27	12.4	
CN(CS(=O)(=O)O)c1ccc(/N=N/c2cccc(S(N)(=O)=O)c2)cc1	63	7.4	
CN(CS(=O)(=O)O)c1ccc(/N=N/c2ccc(S(N)(=O)=O)cc2)cc1	8.71	9.03	
NS(=O)(=O)c1cccc(/N=N/c2ccc(NCS(=O)(=O)O)cc2)c1	7.51	9.45	
Nc1ccc(/N=N/c2cccc(S(N)(=O)=O)c2)cc1	7	8.68	
CNc1ccc(/N=N/c2ccc(S(N)(=O)=O)cc2)cc1	7.69	9.18	93
NS(=O)(=O)c1cccc(/N=N/c2ccc(O)cc2)c1	8.97	9.23	106
CN(C)c1ccc(/N=N/c2cccc(S(N)(=O)=O)c2)cc1	7.54	9.36	
Nc1ccc(S(=O)(=O)NCCc2ccc(S(N)(=O)=O)cc2)cc1		0.17	
CCN[C@H]1CN(CCCOC)S(=O)(=O)c2sc(S(N)(=O)=O)cc21 [BRINZOLAMIDE]		0.201	
NCc1ccc(S(N)(=O)=O)cc1 [MAFENIDE]		7.33	
CC(=O)Nc1cc2c(O)c(/N=N/c3ccc(S(N)(=O)=O)cc3)c(S(=O)(=O)O)cc2cc1S(=O)(=O)O [PRONTOCIL]	0.126	0.148	
O=S(=O)(O)CNc1ccccc1 [SODIUM PHENYLAMINOMETHANESULFONATE]	8.67	8.9	
CN(CS(=O)(=O)O)c1ccccc1 [SODIUM(METHYL(PHENYL)AMINO)METHANESULFONATE]	7.86	9.11	
